Patent US20060100255A1, “Substituted indolealkanoic acids derivative and formulations containing same for use in the treatment of diabetic complications” (priority 2002, published 2006)

Assays:
[1] = tested on: sorbitol accumulation in the sciatic nerve; assay: sorbitol accumulation in sciatic nerve of streptozotocin-induced diabetic rats, 15 day study; assay type: in vivo, rat
Source text: (§1) The test methods employed to determine the efficacy are essentially those of Mylari, et al., J. Med. Chem. 34: 108, 1991.

Tissue Sorbitol Levels = assay: tissue sorbitol levels in the STZ induced diabetic rat, 30 and 90 day studies; assay type: in vivo
Source text: as §1
[(4,5,7-trifluoro-1,3-benzothiazol-2-yl)methyl]-1H-indol-1-yl}acetic acid monohydrate in reducing Tissue Sorbitol Levels in the STZ Induced Diabetic Rat

[2] = tested on: sorbitol levels in the sciatic nerve and lens; assay: 8-day STZ diabetic rat model, sorbitol lowering versus known ARIs; assay type: in vivo; conditions: 10 mg/kg/day
Source text: 3-[(4,5,7-trifluoro-1,3-benzothiazol-2-yl)methyl]-1H-indol-1-yl}acetic acid monohydrate is compared to the known […] inhibitors (ARI) zenarestat and zopolrestat in an 8-day STZ diabetic rat model.

[3] = tested on: nerve conduction velocity (NCV) in the sciatic nerve; assay: 4-week study in STZ-diabetic rats, loss of nerve conduction velocity; assay type: in vivo, rat
[4] = tested on: nerve conduction velocity (NCV) in the sciatic nerve; assay: 3 month study in STZ-diabetic rats, nerve conduction velocity; assay type: in vivo, rat; conditions: 3 months treatment
NCV = assay: comparison with zenarestat and zopolrestat, inhibition of decline in NCV; assay type: in vivo
Source text: 3-[(4,5,7-trifluoro-1,3-benzothiazol-2-yl)methyl]-1H-indol-1-yl}acetic acid monohydrate compares very favorably with the ability of zenarestat and zopolrestat to inhibit the decline in NCV. […]

O=C(O)Cn1cc(Cc2nc3c(F)c(F)cc(F)c3s2)c2ccccc21 [Example 1, 3-(4,5,7-Trifluorobenzothiazol-2-yl)methyl-indole-N-acetic Acid, monohydrate]
ED50, sorbitol accumulation in rat sciatic nerve ([1]; 15 day study): 1.3 mg/kg/day | inhibition of sorbitol accumulation, rat sciatic nerve ([1]; 15 day study, 4.8 mg/kg/day): 100% | changes in fructose ([1]; STZ diabetic rat tissues): levels were reduced | changes in mysinositol ([1]; STZ diabetic rat tissues): levels were increased | % Sorbitol Reduction, Lens (Tissue Sorbitol Levels; 30 days, 5 mg/kg/day): 88% | % Sorbitol Reduction, Sciatic Nerve (Tissue Sorbitol Levels; 30 days, 5 mg/kg/day): 100% | % Sorbitol Reduction, Lens (Tissue Sorbitol Levels; 30 days, 10 mg/kg/day): 90% | % Sorbitol Reduction, Sciatic Nerve (Tissue Sorbitol Levels; 30 days, 10 mg/kg/day): 100% | % Sorbitol Reduction, Lens (Tissue Sorbitol Levels; 30 days, 25 mg/kg/day): 95% | % Sorbitol Reduction, Sciatic Nerve (Tissue Sorbitol Levels; 30 days, 25 mg/kg/day): 100% | % Sorbitol Reduction, Kidney Cortex (Tissue Sorbitol Levels; 90 days, 5 mg/kg/day): 33% | % Sorbitol Reduction, Kidney Medulla (Tissue Sorbitol Levels; 90 days, 5 mg/kg/day): 36% | % Sorbitol Reduction, Retina (Tissue Sorbitol Levels; 90 days, 5 mg/kg/day): 89% | % Sorbitol Reduction, Sciatic Nerve (Tissue Sorbitol Levels; 90 days, 5 mg/kg/day): 100% | % Sorbitol Reduction, Kidney Cortex (Tissue Sorbitol Levels; 90 days, 10 mg/kg/day): 25% | % Sorbitol Reduction, Kidney Medulla (Tissue Sorbitol Levels; 90 days, 10 mg/kg/day): 47% | % Sorbitol Reduction, Retina (Tissue Sorbitol Levels; 90 days, 10 mg/kg/day): 99% | % Sorbitol Reduction, Sciatic Nerve (Tissue Sorbitol Levels; 90 days, 10 mg/kg/day): 100% | % Sorbitol Reduction, Kidney Cortex (Tissue Sorbitol Levels; 90 days, 25 mg/kg/day): 45% | % Sorbitol Reduction, Kidney Medulla (Tissue Sorbitol Levels; 90 days, 25 mg/kg/day): 58% | % Sorbitol Reduction, Retina (Tissue Sorbitol Levels; 90 days, 25 mg/kg/day): 96% | % Sorbitol Reduction, Sciatic Nerve (Tissue Sorbitol Levels; 90 days, 25 mg/kg/day): 100% | Lens sorbitol lowering [2]: 25-42% | Sciatic Nerve sorbitol lowering [2]: 100% | inhibition of decline of nerve conduction velocity (NCV) in the sciatic nerve ([3]; 5 mg/kg/day): 14% | inhibition of decline of nerve conduction velocity (NCV) in the sciatic nerve ([3]; 10 mg/kg/day): 41% | inhibition of decline of nerve conduction velocity (NCV) in the sciatic nerve ([3]; 25 mg/kg/day): 79% | Improvement in NCV ([4]; 5 mg/kg/day): 50% | Improvement in NCV ([4]; 10 mg/kg/day): 68% | Improvement in NCV ([4]; 25 mg/kg/day): 105% | Improvement in NCV (NCV; 25 mg/kg/day, study 4 weeks, treatment 3 weeks): 79%

O=C(O)Cn1c(=O)n(Cc2ccc(Br)cc2F)c(=O)c2ccc(Cl)cc21 [zenarestat]
Lens sorbitol lowering [2]: 0% | Sciatic Nerve sorbitol lowering [2]: 52% | Improvement in NCV (NCV; 32 mg/kg/day, study 2 weeks, treatment 2 weeks): 48%

O=C(O)Cc1nn(Cc2nc3cc(C(F)(F)F)ccc3s2)c(=O)c2ccccc12 [zopolrestat]
Lens sorbitol lowering [2]: 0% | Sciatic Nerve sorbitol lowering [2]: 71% | Improvement in NCV (NCV; 25 mg/kg/day, study 4 weeks, treatment 4 weeks): 43%
